pKi: −log10 of the molar value. Where a name gives a salt, the structure may show the parent alone. Read-outs that look alike come from different tables or passages of the source.
Tests used:
Assay type in all cases: biochemical
MASP-2 (CCP1-CCP2-SP) = MASP-2 (CCP1-CCP2-SP) (Homo sapiens (Human), UniProt O00187); test: biochemical; settings: for MASP-2 vs. thrombin selectivity: selectivity for MASP-2 inhibition versus thrombin
mMASP-2 = mMASP-2 (Mus musculus (Mouse), UniProt Q91WP0); test: Enzymatic inhibition of mMASP-2; settings: read-out: mMASP-2 Ki
Sequence of mMASP-2 (Q91WP0 20-685): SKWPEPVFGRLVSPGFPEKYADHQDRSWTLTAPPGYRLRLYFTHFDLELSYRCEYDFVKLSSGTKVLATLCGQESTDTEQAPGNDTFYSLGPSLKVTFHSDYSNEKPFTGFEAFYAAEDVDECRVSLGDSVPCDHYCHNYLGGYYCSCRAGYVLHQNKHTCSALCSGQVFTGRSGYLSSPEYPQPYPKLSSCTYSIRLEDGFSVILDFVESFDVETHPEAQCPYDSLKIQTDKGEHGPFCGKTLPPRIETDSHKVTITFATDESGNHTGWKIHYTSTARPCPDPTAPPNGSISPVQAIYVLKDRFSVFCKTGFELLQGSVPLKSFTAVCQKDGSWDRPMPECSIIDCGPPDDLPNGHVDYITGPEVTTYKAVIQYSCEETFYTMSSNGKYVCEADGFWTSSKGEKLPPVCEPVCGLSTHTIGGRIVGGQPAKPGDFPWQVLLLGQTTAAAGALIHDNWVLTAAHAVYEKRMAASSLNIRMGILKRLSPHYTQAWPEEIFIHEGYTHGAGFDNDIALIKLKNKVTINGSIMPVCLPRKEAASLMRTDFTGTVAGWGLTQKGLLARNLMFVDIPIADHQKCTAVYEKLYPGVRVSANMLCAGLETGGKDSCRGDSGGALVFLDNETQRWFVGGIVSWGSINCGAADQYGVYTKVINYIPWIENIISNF

human α-thrombin = human α-thrombin (Homo sapiens (Human), UniProt P00734); test: Enzymatic assay for thrombin (Boc-VPR-AMC substrate); settings: for pKi: read-out: Thrombin Ki; for Ki: Thrombin Ki (μM)

Sequence of MASP-2 (CCP1-CCP2-SP) (O00187 445-686): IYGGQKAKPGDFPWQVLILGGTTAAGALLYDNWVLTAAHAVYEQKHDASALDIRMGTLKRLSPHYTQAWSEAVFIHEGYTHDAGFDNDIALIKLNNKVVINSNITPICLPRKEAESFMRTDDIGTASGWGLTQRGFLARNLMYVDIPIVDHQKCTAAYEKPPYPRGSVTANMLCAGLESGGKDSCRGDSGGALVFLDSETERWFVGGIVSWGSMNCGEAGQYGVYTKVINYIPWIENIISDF

| Compound | pKi (MASP-2 (CCP1-CCP2-SP); read-out: MASP-2 Ki) | MASP-2 vs. thrombin selectivity (MASP-2 (CCP1-CCP2-SP)) | pKi (mMASP-2) | pKi (human α-thrombin) | Ki (human α-thrombin) | pKi (MASP-2 (CCP1-CCP2-SP)) |
| --- | --- | --- | --- | --- | --- | --- |
| Cc1cccc(C[C@@H]2CN[C@@H](C(=O)N[C@@H](C)C(=O)NCc3cc(Cl)cc(C)c3O)C2)c1 [compound 1369, (2R,4S)—N—((S)-1-((5-Chloro-2-hydroxy-3-methylbenzyl)amino)-1-oxopropan-2-yl)-4-(3-methylbenzyl)pyrrolidine-2-carboxamide Hydrochloride] | > 6.30 | **** (≥100-fold) | > 6.30 | < 4.60 |  |  |
| Cc1nc(N)ccc1CNC(=O)[C@H](C)NC(=O)[C@H]1C[C@H](Cc2ccccc2-c2ccccc2)CN1 [compound 1373, (2R,4S)-4-([1,1′-Biphenyl]-2-ylmethyl)-N-((S)-1-(((6-amino-2-methylpyridin-3-yl)methyl)amino)-1-oxopropan-2-yl)pyrrolidine-2-carboxamide Di-trifluoroacetate salt] | > 6.30 | *** (≥25 to <100-fold) | > 6.30 |  | 0.5 to 2.5 µM |  |
| Cc1cc(Cl)cc(CNC(=O)[C@H](C)NC(=O)[C@H]2C[C@H](Cc3ccc(Br)cc3)CN2)c1O [compound 1374, (2R,4S)-4-(4-bromobenzyl)-N-((S)-1-((5-chloro-2-hydroxy-3-methylbenzyl)amino)-1-oxopropan-2-yl)pyrrolidine-2-carboxamide Hydrochloride] | > 6.30 |  | > 6.30 | < 4.60 |  |  |
| CCCCCN[C@H](CCc1ccccc1)C(=O)N[C@@H](C)C(=O)NCc1ccc(N)nc1C [compound 1377, (R)—N—((S)-1-(((6-Amino-2-methylpyridin-3-yl)methyl)amino)-1-oxopropan-2-yl)-2-(pentylamino)-4-phenylbutanamide Di-trifluoroacetate salt] |  | ** (≥5.0 to <25-fold) | < 4.60 |  | 10 to 25 µM | 5.60 to 6.30 |
| Cc1nc(N)ccc1CNC(=O)[C@H](C)NC(=O)[C@H]1C[C@H](Cc2ccc(C3CCC3)cc2)CN1 [compound 1379, (2R,4S)—N—((S)-1-(((6-Amino-2-methylpyridin-3-yl)methyl)amino)-1-oxopropan-2-yl)-4-(4-cyclobutylbenzyl)pyrrolidine-2-carboxamide Di-trifluoroacetate salt] | > 6.30 | **** (≥100-fold) | > 6.30 | < 4.60 |  |  |
| Cc1nc(N)ccc1CNC(=O)[C@H](C)NC(=O)[C@@H](CCc1ccccc1)NCc1ccc(C(=O)N2CCOCC2)cc1 [compound 1381, (R)—N—((S)-1-(((6-Amino-2-methylpyridin-3-yl)methyl)amino)-1-oxopropan-2-yl)-2-((4-(morpholine-4-carbonyl)benzyl)amino)-4-phenylbutanamide Di-trifluoroacetate salt] |  | ** (≥5.0 to <25-fold) | 4.60 to 5.00 |  | 10 to 25 µM | 5.60 to 6.30 |
| C[C@H](NC(=O)[C@H]1C[C@H](c2ccccc2)CN1)C(=O)NCc1cnc2[nH]nc(Cl)c2c1 [compound 1384, (2R,4R)—N—((S)-1-(((3-Chloro-1H-pyrazolo[3,4-b]pyridin-5-yl)methyl)amino)-1-oxopropan-2-yl)-4-phenylpyrrolidine-2-carboxamide Dihydrochloride] |  | * (≥1.0 to <5.0-fold) | < 4.60 | < 4.60 |  | 4.60 to 5.00 |
| C[C@H](NC(=O)[C@H]1C[C@H](Cc2ccc3ccccc3c2)CN1)C(=O)NCc1cc(Cl)ccc1-n1cnnn1 [compound 1385, (2R,4S)—N—((S)-1-((5-chloro-2-(1H-tetrazol-1-yl)benzyl)amino)-1-oxopropan-2-yl)-4-(naphthalen-2-ylmethyl)pyrrolidine-2-carboxamide Trifluoroacetate salt] | > 6.30 | ** (≥5.0 to <25-fold) | > 6.30 | > 6.30 |  |  |
| C[C@H](NC(=O)[C@H]1C[C@H](c2ccccc2)CN1)C(=O)NCc1cc(Cl)cc(C#N)c1 [compound 1386, (2R,4R)—N—((S)-1-((3-Chloro-5-cyanobenzyl)amino)-1-oxopropan-2-yl)-4-phenylpyrrolidine-2-carboxamide Trifluoroacetate salt] |  |  | < 4.60 | < 4.60 |  | 4.60 to 5.00 |
| C[C@H](NC(=O)[C@H]1C[C@H](c2ccccc2)CN1)C(=O)NCc1cc(Cl)cc(C(N)=O)c1 [compound 1387, (2R,4R)—N—((S)-1-((3-Carbamoyl-5-chlorobenzyl)amino)-1-oxopropan-2-yl)-4-phenylpyrrolidine-2-carboxamide Trifluoroacetate salt] |  |  | 4.60 to 5.00 | < 4.60 |  | 5.00 to 5.60 |
| C[C@H](NC(=O)[C@H]1C[C@H](c2ccccc2)CN1)C(=O)NCc1ccc2c(N)noc2c1 [compound 1390, (2R,4R)—N—((S)-1-(((3-Aminobenzo[d]isoxazol-6-yl)methyl)amino)-1-oxopropan-2-yl)-4-phenylpyrrolidine-2-carboxamide Di-trifluoroacetate salt] |  |  | < 4.60 | < 4.60 |  | 5.00 to 5.60 |
| Cc1nc(N)ccc1CNC(=O)[C@H](C)NC(=O)[C@H]1C[C@H](Cc2ccc(N3CCCC3=O)cc2)CN1 [compound 1391, (2R,4S)—N—((S)-1-(((6-Amino-2-methylpyridin-3-yl)methyl)amino)-1-oxopropan-2-yl)-4-(4-(2-oxopyrrolidin-1-yl)benzyl)pyrrolidine-2-carboxamide Di-trifluoroacetate salt] | > 6.30 | **** (≥100-fold) | > 6.30 | < 4.60 |  |  |
| C[C@H](NC(=O)[C@H]1C[C@H](Cc2ccccc2-c2ccccc2)CN1)C(=O)NCc1cnc2[nH]cc(Cl)c2c1 [compound 1393, (2R,4S)-4-([1,1′-Biphenyl]-2-ylmethyl)-N-((S)-1-(((3-chloro-1H-pyrrolo[2,3-b]pyridin-5-yl)methyl)amino)-1-oxopropan-2-yl)pyrrolidine-2-carboxamide Di-trifluoroacetate salt] | > 6.30 | * (≥1.0 to <5.0-fold) | > 6.30 | > 6.30 |  |  |
| C[C@H](NC(=O)[C@H]1C[C@H](c2ccccc2)CN1)C(=O)NCc1cc(Cl)ccc1-n1ncnn1 [compound 1394, (2R,4R)—N—((S)-1-((5-chloro-2-(2H-tetrazol-2-yl)benzyl)amino)-1-oxopropan-2-yl)-4-phenylpyrrolidine-2-carboxamide Trifluoroacetate] |  | * (≥1.0 to <5.0-fold) | < 4.60 |  | 10 to 25 µM | 5.00 to 5.60 |
| C[C@H](NC(=O)[C@H]1C[C@H](c2ccccc2)CN1)C(=O)NCc1cc(Cl)cc(Cl)c1O [compound 1395, (2R,4R)—N—((S)-1-((3,5-dichloro-2-hydroxybenzyl)amino)-1-oxopropan-2-yl)-4-phenylpyrrolidine-2-carboxamide Trifluoroacetate] |  |  | 5.00 to 5.60 | < 4.60 |  | 5.60 to 6.30 |
| Cc1nc(N)ccc1CNC(=O)[C@H](C)NC(=O)[C@H]1C[C@@H](c2ccccc2)CCN1CC(=O)O [compound 1398, 2-((2R,4S)-2-(((S)-1-(((6-Amino-2-methylpyridin-3-yl)methyl)amino)-1-oxopropan-2-yl)carbamoyl)-4-phenylpiperidin-1-yl)acetic acid Trifluoroacetate salt] | > 6.30 |  | 5.60 to 6.30 | < 4.60 |  |  |
| Cc1nc(N)ccc1CNC(=O)[C@H](C)NC(=O)[C@H]1C[C@H](Cc2cc(-c3ccccc3)cs2)CN1 [compound 1399, (2R,4R)—N—((S)-1-(((6-Amino-2-methylpyridin-3-yl)methyl)amino)-1-oxopropan-2-yl)-4-((4-phenylthiophen-2-yl)methyl)pyrrolidine-2-carboxamide Dihydrochloride] | > 6.30 | **** (≥100-fold) | > 6.30 |  | 10 to 25 µM |  |
| Cc1cc(Cl)cc(CNC(=O)[C@H](C)NC(=O)[C@H]2C[C@H](Cc3ccccc3-c3ccccc3)CN2)c1O [compound 1401, (2R,4S)-4-([1,1′-Biphenyl]-2-ylmethyl)-N-((S)-1-((5-chloro-2-hydroxy-3-methylbenzyl)amino)-1-oxopropan-2-yl)pyrrolidine-2-carboxamide Hydrochloride] | > 6.30 |  | 5.60 to 6.30 | < 4.60 |  |  |
| C[C@H](NC(=O)[C@H]1C[C@H](Cc2ccccc2-c2ccccc2)CN1)C(=O)NCc1cc(Cl)ccc1-n1cnnn1 [compound 1402, (2R,4S)-4-([1,1′-Biphenyl]-2-ylmethyl)-N-((S)-1-((5-chloro-2-(1H-tetrazol-1-yl)benzyl)amino)-1-oxopropan-2-yl)pyrrolidine-2-carboxamide Trifluoroacetate] | > 6.30 | * (≥1.0 to <5.0-fold) | 5.60 to 6.30 | > 6.30 |  |  |
| Cc1nc(N)ccc1CNC(=O)[C@H](C)NC(=O)[C@H]1C[C@H](Cc2ccc(-c3ccc(F)cc3CN)cc2)CN1 [compound 1403, (2R,4S)—N—((S)-1-(((6-Amino-2-methylpyridin-3-yl)methyl)amino)-1-oxopropan-2-yl)-4-((2′-(aminomethyl)-4′-fluoro-[1,1′-biphenyl]-4-yl)methyl)pyrrolidine-2-carboxamide] | > 6.30 |  | 5.60 to 6.30 | < 4.60 |  |  |
| C[C@H](NC(=O)[C@H]1C[C@H](Cc2ccc(-c3cccnc3)cc2)CN1)C(=O)NCc1cc(Cl)ccc1-n1cnnn1 [compound 1404, (2R,4S)—N—((S)-1-((5-Chloro-2-(1H-tetrazol-1-yl)benzyl)amino)-1-oxopropan-2-yl)-4-(4-(pyridin-3-yl)benzyl)pyrrolidine-2-carboxamide Hydrochloride] | > 6.30 | ** (≥5.0 to <25-fold) | > 6.30 | > 6.30 |  |  |
